2 compounds from patent publication US20210047192A1, “DELAYED RELEASE FORMULATION OF NITRIFICATION INHIBITORS” (BASF SE, priority 2018, published 2021) can be followed below.

A short description of data set [1]: Volatility measurement at 60° C. with different loading for 24 or 72 hours (beakers B11-B15). Type of data set: physicochemical. Particulars: relative to the initial weight. The protocol: Five beakers B11-B15 were prepared containing samples as specified in Table 8.
(§1) All 5 beakers B11-B15 were mounted in an oil bath such that half of the beakers were immersed. The temperature of the oil bath was set to 60′C. During the heating process, the beakers were periodically taken out of the oil bath, dried, and weighted. The total mass of the beaker with samples was noted and compared to the initial weight of the beakers with samples. The weight loss attributed to Compound A was calculated from the total weight loss of the sample by taking the loading of the respective sample with Compound A into account. A comparison of the weight loss of Compound A, and the whole sample weight loss in the all 5 beakers after 24 and 72 hours at 60° C. was shown in the Table 9.

A short description of data set [2]: Volatility measurement at 100° C. It is filed as physicochemical. Particulars: relative to the initial weight, after hours at 100° C. The method, then: as §1, with “beakers” for “beakers B11-B15”, “35° C.” for “60′C.”, “23” for “24 and 72”, “35°” for “60°”, “3.” for “9.”
Five beakers B1-B5 were prepared and treated as described in Example-1 with the differences that the oil bath was set to 100° C. and that the weight loss was recorded after […].

Data set [3] is described as follows: Volatility measurement at 35° C. (weight loss of beakers in oil bath). It is filed as physicochemical. The following applies: relative to the initial weight, after 23 hours at 35° C. The protocol: Five beakers B1-B5 were prepared containing samples as specified in Table 2
as §1, with “beakers” for “beakers B11-B15”, “35° C.” for “60′C.”, “23” for “24 and 72”, “35°” for “60°”, “3.” for “9.”

Data set [4] can be described thus: Volatility measurement at 60° C. (weight loss after 32 hours). Particulars: relative to the initial weight, after 32 hours at 60° C. It is filed as physicochemical. The method, then:
as §1, with “beakers” for “beakers B11-B15”, “35° C.” for “60′C.”, “23” for “24 and 72”, “35°” for “60°”, “3.” for “9.”
Five beakers B1-B5 were prepared and treated as described in Example-1 with the differences that the oil bath was set to 60° C. and that the weight loss was recorded after 32 hours.

For the next data set, the system named is sandy soil. Kind of data set: Nitrogen retention in field trials (NH4-nitrogen content of soil). It is filed as in vivo. The following applies: incorporation depth 0 cm. The protocol: An area of sandy soil, previously untreated with fertilizer or other agricultural products near the field station Limburgerh of, was treated as follows. Drainage pipes of 20 cm in length and 12 cm diameter were inserted 10 cm deep into the soil. A treatment as indicated in a line of Table 10 was added on top of the soil under which a pipe was buried. At the beginning of the experiment and after three weeks, the pipes were dug out of the soil with its content, the content emptied into a bag and frozen on site. The soil was then analyzed for NH4-nitrogen content in the laboratory according to the following method: Samples were defrosted for 24 h, then sieved through a 5-6 mm mesh sieve. 200 g of the thus homogenized samples were put into 1 L plastic bottles and 600 mL of a […] solution (1% (w/w) K2SO4 in water) were added. The samples were then shaken for 2 h end over end. The solution was filtered to remove the soil and 50 mL of the filtrate retained for analysis in a Continuous Flow Analyzer for NH4-nitrogen content.

SMILES strings stand for the structures.

As to `C#CCOCc1ccc(Cl)cc1` [Compound A, 1-chloro-4-(prop-2-ynoxymethyl)benzene], in data set [1] (24 hours), the “Total sample weight loss after 24 hours” value is 9.02% and the “Weight loss of Compound A after 24 hours” value is 9.02%. Besides, in data set [1] (72 hours), the “Total sample weight loss after 72 hours” value came out at 26.99% and the “Weight loss of Compound A after 72 hours” value was found to be 26.99%. In addition, in data set [2], the “Total sample weight loss” value came out at 68.82% and the “Weight loss of Compound A” value is 68.82%. Further, in data set [3], the “Total sample weight loss” value amounted to 4.22% and the “Weight loss of Compound A” value came to 4.22%. In data set [4], the “Total sample weight loss” value is 37.97% and the “Weight loss of Compound A” value was determined as 37.97%.

Turning to `N.N.O=S(=O)(O)O` [Ammonium Sulfate], the NH4-nitrogen with sandy soil (3 weeks after application) worked out at 8 kg/ha; in the data set on sandy soil (at time of application), 75 kg/ha.
